Laboratory results from paper PMC6805867, “Amphiphilic Triazine Polymer Derivatives as Antibacterial And Anti-atopic Agents in Mice Model” (Scientific Reports, 2019).

How the values were obtained:
[1] = test system: selected bacterial strains; assay: Geometric mean of MIC values over the bacterial strains; type: cell-based; conditions: geometric mean of MIC values from selected six bacterial strains (footnote b)
Protocol: (§1) The bacterial strains employed in the experiment were Escherichia coli (KCTC 1682), Pseudomonas aeruginosa (KCTC 1637), Bacillus subtilis (KCTC 3068), Staphylococcus aureus (KCTC 1621), three methicillin-resistant Staphylococcus aureus (CCARM 3089, 3090 and 3095), two multidrug-resistant Pseudomonas aeruginosa (CCARM 2095 and 2109) and vancomycin-resistant Enterococcus faecium (ATCC 51559). The antimicrobial activities of polymers were determined by the broth microdilution method, and the procedures were used as previously reported. Briefly, bacteria grown to mid-logarithmic phase in LB broth were diluted to 2 × 10^6 CFU/mL in 1% peptone and added to serial two-fold dilutions of different polymers ranging from 1 to 64 μg/mL. The plates were incubated in a shaking incubator at 37 °C for 18–22 h. The minimum inhibitory concentration (MIC) was determined by confirming the absence of bacterial growth both visually and spectrophotometrically by OD600 readings taken by a microplate ELISA reader (Molecular Devices, Sunnyvale, CA, USA). All measurements were performed three times.

[2] = test system: Vancomycin-resistant Enterococcus faecium (VREF) ATCC 51559; assay: MIC against antibiotic-resistant bacteria; type: cell-based; conditions: broth microdilution, 37 °C, 18–22 h
Protocol: as §1

HaCaT cells = assay: Cytotoxicity, MTT assay; type: cell-based; conditions: 24 h, maximum tested concentration (20 µg)
Protocol: page 6: Figure S2. Effect of TZP3 and TZP5 on β-hexosaminidase release in RBL-2H3 cells Cytotoxicity evaluation of TZP3 and TZP5 on HaCaT cells Figure S3: Cytotoxicity evaluation of TZP3 […] and TZP5 (b) on HaCaT cells. TZP3 and TZP5 were treated with HaCaT cells in various concentrations for 24 h followed by MTT assay, and absorbance was measured. Cell viability was calculated as the relative absorbance. […]

[3] = test system: inflammatory cytokine expression in dorsal skin tissue; assay: DNCB-induced AD model, cytokine mRNA expression by real-time PCR; type: in vivo, BALB/c mice; conditions: AD-like skin lesions, n = 8
Protocol: (§2) As described in our previous article, the 7-week-old female BALB/c mice were divided into seven groups (n = 8 per group): Control (Con) group, TZP3 200 μg/mL (TZP3) group, and TZP5 200 μg/mL (TZP5) group, DNCB-sensitized only (AD) group, DNCB-sensitized + TZP3 200 μg/mL (AD + TZP3) group, DNCB-sensitized + TZP5 200 μg/mL (AD + TZP5) group, DNCB-sensitized + Dermatop (Sanofi, Korea) 0.25% (AD + Dermatop) group. Dermatop was used as a positive control treatment. For the first induction of AD in the BALB/c mice, the backs of the mice were shaved and challenged with 200 μL of 1% 2,4-dinitrochlorobenzene(DNCB) in acetone/olive oil (3:1) one time (day−4). After 4 days from the induction, 0.5% DNCB was painted onto the backs of the mice every two days (day 2, 4, 6, 8, 10, 12, 14, 16 and 18). Concentrations of 200 μg/mL TZP3 or TZP5 in 20 μL of PBS were applied to the dorsal skin once daily for 18 days.
For the reverse transcription (RT) - polymerase chain reaction (PCR), the total cellular RNA was isolated from the dorsal skin tissue of each treatment group using TRIzol according to the manufacturer’s protocol. The first-strand complementary DNA (cDNA) was synthesized using Superscript II reverse transcriptase (Invitrogen). The conditions for RT-PCR were similar ones that have been previously described in related studies. Quantitative real-time PCR was carried out using a Thermal Cycler Dice TP850 (Takarabio Inc., Shiga, Japan) according to the manufacturer’s protocol. Briefly, 2 μL of cDNA (100 ng), 1 μL of sense and antisense primer solution (0.4 µM), 12.5 μL of SYBR Premix Ex Taq (Takarabio Inc.), and 9.5 μL of dH2O were mixed to obtain a final 25-μL reaction mixture in each reaction tube. The amplification conditions were as follows: 10 s at 95 °C, 40 cycles of 5 s at 95 °C and 30 s at 60 °C, 15 s at 95 °C, 30 s at 60 °C, and 15 s at 95 °C. The mRNA levels of the target genes relative to that of GAPDH were normalized as follows: relative mRNA expression = 2^-(ΔCt of target gene−ΔCt of GAPDH), where Ct is the threshold cycle value. In each sample, the expression level of the analyzed gene was normalized to that of GAPDH and presented as a relative mRNA level.

[4] = test system: TGF-β, TNF-α, iNOS, COX-2 protein in dorsal tissue; assay: DNCB-induced AD model, western blot of inflammatory mediators; type: in vivo, BALB/c mice; conditions: versus AD mice
Protocol: as §2
Frozen skins from the mice were homogenized in liquid nitrogen. For the western blot analysis, the tissues were lysed in a RIPA lysis buffer(Sigma) containing 1% protease inhibitor. The cell lysates were incubated on ice for 1 h and then the homogenates were centrifuged at 13000 rpm for 20 min at 4 °C. […] The antibody-specific proteins were visualized with enhanced chemiluminescence (ECL) detection reagent and quantified using the ImageJ software. […]

[5] = test system: serum total IgE and IgG2a; assay: DNCB-induced AD model, serum immunoglobulins by ELISA; type: in vivo, BALB/c mice; conditions: versus AD-induced mice
Protocol: as §2
Blood was collected from each experimental group via cardiac puncture and was centrifuged at 3000 rpm and 4 °C for 20 min to obtain the serum. The levels of IgE, IgG2a were measured with an enzyme-linked immunosorbent assay kit (Bethyl Laboratories, Montgomery, TX, USA), following the manufacturer’s instructions.

[6] = test system: lymph node and spleen of AD-induced mice; assay: DNCB-induced AD model, lymph node and spleen weight and size; type: in vivo, BALB/c mice; conditions: for weight and size of spleen: compared to AD-induced mice, p < 0.05 for weight; for decrease in both weight and size of lymph node: compared to untreated AD-mice
Protocol: as §2

SMILES	GM (geometric mean of MIC values) [1]	MIC VREF ATCC 51559 [2]	cytotoxicity in HaCaT cells (HaCaT cells)	IL-4 suppression (mRNA expression) [3]	inhibition of IFN-γ mRNA expression [3]	inhibition of IL-1β mRNA expression [3]	inhibition of IL-13 mRNA expression [3]	inhibition of IL-17 mRNA expression [3]	inhibition of TNF-α mRNA expression [3]	suppression of IL-6 mRNA expression [3]	suppression of IL-10 mRNA expression [3]	protein expressions (TGF-β, TNF-α, iNOS, COX-2) in dorsal tissue [4]	serum level of total IgE [5]	serum level of total IgG2a [5]	weight and size of spleen [6]	decrease in both weight and size of lymph node [6]
NCCCN(CCCN)c1nc(N)nc(NCCNc2nc(Cl)nc(N(Cc3ccccc3)Cc3ccccc3)n2)n1 [TZP3]	4.5 [7.6] μg/mL	8 [13.5] µg/mL	didn’t show significant cytotoxicity	around 35%	around 60%	more than 70%	more than 70%	60%	approximately 55%	around 60%	around 35%	significant decrease	significantly reduced	significantly reduced	significant decrease	more than 35%
NCCCN(CCCN)c1nc(Cl)nc(NCCNc2nc(NCCNc3nc(N)nc(NCCC(c4ccccc4)c4ccccc4)n3)nc(N(CCCN)CCCN)n2)n1 [TZP5]	3.0 µg/mL	4 [3] µg/mL	didn’t show significant cytotoxicity	around 35%	around 60%	> 75%	> 75%	more than 85%	~65%	~50%	almost similar potency with the dermatop	significant decrease	significantly reduced	significantly reduced	significant decrease	more than 35%
